Data taken from US9440984B2, “Pyrrolotriazines as ALK inhibitors” (Cephalon, Inc., priority 2013, dated 2016).
Like-named read-outs stand apart in the source and are kept apart here. Values belong to the molecule of their own block, whether it stands above or below them.

Legend:
[1] = system: Sup-M2 ALCL xenografts; format: in vivo; conditions: Scid mice, p.o., 10 days; for anti-tumor efficacy (tumor regression): Sup-M2 xenografts
[2] = PK/PD study: compound levels in plasma and tumor lysates (LC/MS-MS); format: in vivo; conditions: Scid mice, single p.o. 30 mg/kg, 6 h and 16 h post dose
From the text: Exponentially growing cells were implanted subcutaneously to the left flank of each mouse. The mice were monitored and when the tumor xenograft volumes reached approximately 300 to 500 mm3, mice received a single oral administration of either vehicle PEG-400 or the compound of interest (e.g., Examples 14, 16, 16a, and/or 16b) formulated in vehicle. At indicated time points postdosing, the mice were sacrificed, the blood was collected and centrifuged, and the plasma was collected. The tumors were excised and disrupted with a hand-held tissue blender in completed FRAK lysis buffer without Triton X-100. After brief sonication, the lysates were cleared by centrifugation, mixed with sample buffer, and subjected to SDS-PAGE for ALK immunoblotting as described above. The individual bands of phospho- and total NPM-ALK were scanned and quantified with the Gel Pro Analyzer software (Media Cybernetics, Inc.). The relative NPM-ALK tyrosine phosphorylation (phospho-NPMALK/NPM-ALK ratio) of each sample at indicated time points was then calculated, with the average value of vehicle-treated sample(s) as 100. The compound levels in plasma and tumor lysates were measured by liquid chromatography/tandem mass spectrometry (LC/MS-MS).

[3] = target: T1, ALK (Homo sapiens, UniProt Q9UM73); experiment: ALK autophosphorylation enzyme assay; format: biochemical
Target sequence in this assay (Q9UM73 19-1620): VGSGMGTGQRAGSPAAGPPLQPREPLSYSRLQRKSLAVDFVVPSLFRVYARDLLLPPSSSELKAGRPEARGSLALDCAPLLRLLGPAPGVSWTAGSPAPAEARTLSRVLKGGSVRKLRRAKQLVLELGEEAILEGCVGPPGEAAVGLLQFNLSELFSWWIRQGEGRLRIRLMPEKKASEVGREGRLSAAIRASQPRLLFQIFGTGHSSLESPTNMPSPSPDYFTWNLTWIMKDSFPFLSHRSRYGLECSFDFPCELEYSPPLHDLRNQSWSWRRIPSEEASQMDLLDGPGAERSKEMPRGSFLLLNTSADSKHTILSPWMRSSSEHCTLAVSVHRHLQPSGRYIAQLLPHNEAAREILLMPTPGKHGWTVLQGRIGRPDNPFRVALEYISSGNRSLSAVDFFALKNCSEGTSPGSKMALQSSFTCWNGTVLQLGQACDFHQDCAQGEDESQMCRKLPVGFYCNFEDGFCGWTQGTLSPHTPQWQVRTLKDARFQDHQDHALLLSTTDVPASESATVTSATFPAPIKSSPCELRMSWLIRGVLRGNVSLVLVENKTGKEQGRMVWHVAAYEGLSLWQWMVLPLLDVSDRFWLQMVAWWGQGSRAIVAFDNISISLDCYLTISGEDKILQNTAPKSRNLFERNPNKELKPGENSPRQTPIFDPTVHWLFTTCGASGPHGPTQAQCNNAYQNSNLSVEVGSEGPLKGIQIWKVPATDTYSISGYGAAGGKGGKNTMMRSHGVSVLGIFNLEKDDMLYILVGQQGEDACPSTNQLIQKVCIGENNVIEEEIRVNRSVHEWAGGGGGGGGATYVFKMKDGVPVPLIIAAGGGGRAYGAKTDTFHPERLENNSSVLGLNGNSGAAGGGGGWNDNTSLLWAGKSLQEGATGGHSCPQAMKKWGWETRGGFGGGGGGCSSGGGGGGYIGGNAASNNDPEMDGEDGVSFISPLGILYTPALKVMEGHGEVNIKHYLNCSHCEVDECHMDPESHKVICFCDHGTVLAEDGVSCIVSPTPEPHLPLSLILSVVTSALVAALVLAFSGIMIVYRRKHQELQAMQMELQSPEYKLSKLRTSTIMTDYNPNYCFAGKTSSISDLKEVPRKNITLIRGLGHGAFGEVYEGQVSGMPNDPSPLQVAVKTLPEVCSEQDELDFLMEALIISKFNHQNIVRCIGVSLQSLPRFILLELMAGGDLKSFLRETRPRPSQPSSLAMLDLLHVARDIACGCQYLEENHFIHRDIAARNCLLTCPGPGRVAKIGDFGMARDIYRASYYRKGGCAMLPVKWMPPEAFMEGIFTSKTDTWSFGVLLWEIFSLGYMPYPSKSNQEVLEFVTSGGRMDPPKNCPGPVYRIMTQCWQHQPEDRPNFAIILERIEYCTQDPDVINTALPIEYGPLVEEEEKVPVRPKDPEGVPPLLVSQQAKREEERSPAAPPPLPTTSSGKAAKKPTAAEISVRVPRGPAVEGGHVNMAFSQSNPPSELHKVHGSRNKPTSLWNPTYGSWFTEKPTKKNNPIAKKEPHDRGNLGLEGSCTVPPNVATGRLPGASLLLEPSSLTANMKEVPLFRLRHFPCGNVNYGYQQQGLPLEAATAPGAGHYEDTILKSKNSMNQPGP

[4] = target: T1, ALK; experiment: ALK autophosphorylation cellular assay; format: cell-based; conditions: read-out: ALK Cell IC50
Target sequence in this assay (Q9UM73 with tags, fused parts or gaps): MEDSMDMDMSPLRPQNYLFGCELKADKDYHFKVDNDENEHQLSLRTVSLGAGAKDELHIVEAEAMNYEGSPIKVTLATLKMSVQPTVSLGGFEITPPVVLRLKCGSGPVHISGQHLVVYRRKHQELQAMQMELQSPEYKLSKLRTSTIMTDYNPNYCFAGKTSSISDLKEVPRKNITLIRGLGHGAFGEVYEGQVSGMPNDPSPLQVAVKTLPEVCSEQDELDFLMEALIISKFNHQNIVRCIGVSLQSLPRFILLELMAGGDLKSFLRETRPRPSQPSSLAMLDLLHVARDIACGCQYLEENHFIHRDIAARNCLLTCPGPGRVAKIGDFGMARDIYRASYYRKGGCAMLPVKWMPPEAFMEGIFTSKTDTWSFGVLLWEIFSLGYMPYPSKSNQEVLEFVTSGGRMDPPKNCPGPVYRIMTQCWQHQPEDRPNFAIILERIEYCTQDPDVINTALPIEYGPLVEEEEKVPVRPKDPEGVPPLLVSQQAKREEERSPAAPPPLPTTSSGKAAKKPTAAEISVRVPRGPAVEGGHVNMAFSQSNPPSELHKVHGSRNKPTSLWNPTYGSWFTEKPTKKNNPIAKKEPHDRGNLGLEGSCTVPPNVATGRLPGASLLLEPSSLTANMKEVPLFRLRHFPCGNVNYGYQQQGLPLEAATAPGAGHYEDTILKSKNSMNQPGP

[5] = Rat pharmacokinetic (PK) studies
[6] = Sprague-Dawley rat, i.v., 1 mg/kg
[7] = Sprague-Dawley rat, p.o., 5 mg/kg
[8] = Sprague-Dawley, rat, in vivo, po, 5 mg/kg
[9] = Sprague-Dawley, rat, in vivo, iv, 1 mg/kg

Structure (SMILES): COc1cc([C@H]2CCN(CCO)C[C@@H]2O)ccc1Nc1ncc2ccc(-c3ccccc3OC)n2n1 (single isomer, unassigned) [Example 16b]
tolerability (body weight loss, overt toxicity) ([1]; 30 mg/kg b.i.d.): well tolerated | tolerability (body weight loss, overt toxicity) ([1]; 55 mg/kg b.i.d.): well tolerated | anti-tumor efficacy (tumor regression) ([1]; 30 mg/kg b.i.d.): Complete tumor regressions | anti-tumor efficacy (tumor regression) ([1]; 55 mg/kg b.i.d.): Complete tumor regressions | plasma and tumor levels, higher than with Example 16a [2]: 4-10 fold

Structure (SMILES): COc1cc(C2CCN(CCO)CC2(F)F)ccc1Nc1ncc2ccc(-c3cccnc3OC)n2n1 (racemic) [Example 11, (±)-2-(3,3-Difluoro-4-{3-methoxy-4-[7-(2-methoxy-pyridin-3-yl)-pyrrolo[2,1-f][1,2,4]triazin-2-ylamino]-phenyl}-piperidin-1-yl)-ethanol]
IC50 [3]: 34 nM

Structure (SMILES): COc1cc(C2CCNCC2(F)F)ccc1Nc1ncc2ccc(-c3cccnc3OC)n2n1 (racemic) [Example 12, (±)-[4-(3,3-Difluoro-piperidin-4-yl)-2-methoxy-phenyl]-[7-(2-methoxy-pyridin-3-yl)-pyrrolo[2,1-f][1,2,4]triazin-2-yl]-amine]
IC50 [4]: 200 nM | IC50 [3]: 13.7 nM

Structure (SMILES): COc1cc([C@@H]2CCN(CCO)C[C@@H]2O)ccc1Nc1ncc2ccc(-c3ccccc3OC)n2n1 (racemic) [Example 14, (±)-3,4-cis-1-(2-Hydroxy-ethyl)-4-{3-methoxy-4-[7-(2-methoxy-phenyl)-pyrrolo[2,1-f][1,2,4]triazin-2-ylamino]-phenyl}-piperidin-3-ol]
AUC0-∞ [5, 6]: 371 ± 6 ng·h/mL | CL [5, 6]: 46 ± 1 mL/min/kg | Vd [5, 6]: 9.9 ± 2 L/kg | t1/2 [5, 6]: 2.5 ± 0.6 h | AUC0-∞ [5, 7]: 479 ± 83 ng·h/mL | Cmax [5, 7]: 85 ± 15 ng/mL | F % [5, 7]: 26 ± 4% | Tmax [5, 8]: 6 h | rat PK properties (in words) ([5]; rat): acceptable rat PK properties

Structure (SMILES): COc1cc([C@@H]2CCNC[C@@H]2O)ccc1Nc1ncc2ccc(-c3cccnc3OC)n2n1 (racemic) [Example 4, (±)-3,4-cis-4-{3-Methoxy-4-[7-(2-methoxy-pyridin-3-yl)-pyrrolo[2,1-f][1,2,4]triazin-2-ylamino]-phenyl}-piperidin-3-ol]
IC50 [3]: 14 nM

Structure (SMILES): COc1cc([C@@H]2CCN(CC(C)(C)O)C[C@H]2F)ccc1Nc1ncc2ccc(-c3cccnc3OC)n2n1 (racemic) [Example 10, (±)-1-(3,4-trans-3-Fluoro-4-{3-methoxy-4-[7-(2-methoxy-pyridin-3-yl)-pyrrolo[2,1-f][1,2,4]triazin-2-ylamino]-phenyl}-piperidin-1-yl)-2-methyl-propan-2-ol]
IC50 [3]: 25.2 nM

Structure (SMILES): COc1cc([C@@H]2CCN(CCO)C[C@H]2O)ccc1Nc1ncc2ccc(-c3ccccc3OC)n2n1 (racemic) [Example 16, (±)-3,4-trans-1-(2-Hydroxy-ethyl)-4-{3-methoxy-4-[7-(2-methoxy-phenyl)-pyrrolo[2,1-f][1,2,4]triazin-2-ylamino]-phenyl}-piperidin-3-ol]
AUC(0-inf) [5, 9]: 459 ± 72 ng·h/mL | Vd [5, 9]: 10.3 ± 1.3 L/kg | clearance [5, 9]: 39 ± 7 mL/min/kg | half-life [5, 9]: 3.2 ± 0.6 h | AUC(0-inf) [5, 8]: 708 ± 63 ng·h/mL | Cmax [5, 8]: 97 ± 10 ng/mL | Tmax [5, 8]: 4 ± 1.2 h | bioavailability [5, 8]: 31 ± 3% | rat PK properties (in words) ([5]; rat): acceptable rat PK properties

Results, then the molecule that gave them:

IC50 [3]: 5.66 nM
Structure (SMILES): COc1cc([C@@H]2CCNC[C@H]2F)ccc1Nc1ncc2ccc(-c3ccccc3OC)n2n1 (racemic) [Example 5, (±)-[4-(3,4-trans-3-Fluoro-piperidin-4-yl)-2-methoxy-phenyl]-[7-(2-methoxy-phenyl)-pyrrolo[2,1-f][1,2,4]triazin-2-yl]-amine]

IC50 [4]: 50 nM | IC50 [3]: 3.33 nM
Structure (SMILES): COCCN1CC[C@@H](c2ccc(Nc3ncc4ccc(-c5ccccc5OC)n4n3)c(OC)c2)[C@@H](O)C1 (racemic) [Example 1, (±)-3,4-cis-1-(2-Methoxy-ethyl)-4-{3-methoxy-4-[7-(2-methoxy-phenyl)-pyrrolo[2,1-f][1,2,4]triazin-2-ylamino]-phenyl}-piperidin-3-ol]

IC50 [4]: 150 nM | IC50 [3]: 3 nM
Structure (SMILES): COc1cc(C2CCN(CCO)CC2)ccc1Nc1ncc2ccc(-c3ccccc3OC)n2n1 [Example 18, 2-(4-{3-Methoxy-4-[7-(2-methoxy-phenyl)-pyrrolo[2,1-f][1,2,4]triazin-2-ylamino]-phenyl}-piperidin-1-yl)-ethanol]

IC50 [3]: 28.2 nM
Structure (SMILES): COc1cc(C2CCN(CCO)CC2(F)F)ccc1Nc1ncc2ccc(-c3ccccc3OC)n2n1 (racemic) [Example 9, (±)-2-(3,3-Difluoro-4-{3-methoxy-4-[7-(2-methoxy-phenyl)-pyrrolo[2,1-f][1,2,4]triazin-2-ylamino]-phenyl}-piperidin-1-yl)-ethanol]
